Where a name gives a salt, the structure may show the parent alone.
Experiments:
[1] = system: Mouse B16 melanoma cells (MM-4 cell line); assay: Cytotoxic/cytostatic activity of E2+85Rbe and antitumor drug added simultaneously; assay type: cell-based
Description: The effects of the complex action of various doses of the investigated substances were evaluated using the concept of synergistic, additive and antagonistic effects of the drugs. The mathematics are detailed below. […] The effects were calculated using the Chou-Talalay method according to the following equation (“CI” refers to the “combination index”) (see T.-C. […] Where both the ^85Rb-enriched rubidium salt (referred to as “E2+^85Rbe”) and an AD were administered, they were administered simultaneously.

[2] = system: Ehrlich ascites carcinoma; assay: In vivo antitumor activity against Ehrlich ascites carcinoma; set-up: species or system mouse
Description: Outbred mice were administered Ehrlich ascites carcinoma cells (EAC) intraperitoneally (IP) at a dose of 2.5×10^5 cells in 0.25 ml of normal saline solution. The compounds under study, 1)^85RbeE2, was dissolved in deuterium-depleted water and 2) Cisplatin (Teva, the Netherlands), was dissolved in normal saline solution. The drugs were administered starting from the first day after mice were inoculated with tumor cells, using a microinjection syringe, at the following doses: 1)^85Rbe-E2 at a dose of 750 μg/mouse (weighing 20 g) in a volume of 0.3 ml as 3 IP injections (1 injection—250 μg/mouse) on the 1st, 4th and 7th day of the experiment; 2) Cisplatin at a dose of 4.5 mg/kg or 1.5 mg/kg as 3 IP injections on the 2nd, 5th and 8th day of the experiment. The dynamics of tumor growth in the experimental animals was observed (based on the volume of ascites in the peritoneal cavity) after the tumor cell inoculation and for 31 days of the experiment. On the 15th and 22nd day after IP administration of tumor cells, all the fluid accumulated in each animal's abdomen was extracted and the total number of live/dead cells in each mouse was determined. In addition, some mice were used to assess a survival rate of animals in the experiment.
Laboratory animals. 84 outbred female 10 to 12-week old mice weighing 22-26 g were used in the experimental study. The animals were obtained from the animal vivarium at R.E. Kavetsky IEPOR NASU. […] The animals were maintained in plastic cages, under natural light-dark cycles, fed standard food and allowed free access to food and tap water.
Tumor model. Ascites strain of Ehrlich ascites carcinoma maintained on outbred mice obtained from the cell and tissue line bank at R.E. Kavetsky IEPOR NASU was used in the experiment. To prepare the strain for injection, tumor cells derived from ascitic fluid were placed in normal saline solution and cellularity of the suspension was assessed in a hemocytometer and adjusted to a concentration of 1·10^6 cells/ml with saline solution. The tumor cells were inoculated by injecting 250 mcl of cell suspension from the tumor (0.25×10^6 cells/mouse) into the peritoneal cavity of laboratory animals.
The drugs were administered IP every other day, using a microinjection syringe, at doses specified above as a series of 3 injections of each compound according to the following scheme: ^85Rbe-E2 at a dose of 250 μg/mouse weighing 20 g+CP at a dose of […] 24 hours later (for groups (EAC+CP(4.5)) and (EAC+^85Rbe-E2+CP(4.5)) or […] (for groups (EAC+CP(1.5)) and (EAC+^85Rbe-E2+CP(1.5)) in a volume of 0.25 ml of saline solution (6 injections in total during 8 days).
The tumor growth dynamics in the laboratory animals was observed by daily control of the volume of ascitic fluid in the abdominal cavity of mice starting from the tumor inoculation and for 31 days of the experiment. The dynamics of ascites growth both in control and experimental groups was assessed visually using a 10-point scale, where 0 points were the absence of tumor growth and 10 points were the maximum increase in the size of the abdomen of the mouse with ascites (one point was 0.6 cm of the mean diameter of the mouse abdomen filled with the fluid).
Furthermore, on the 15th and 22nd day after intraperitoneal injection of tumor cells, all ascitic fluid was removed from the abdomen in 2 or 3 animals from each group by washing their peritoneal cavity with saline solution, and live/dead EAC cells were counted in each mouse using the traditional vital dye trypan blue (HyClon, USA) and a hemocytometer.
X=((a)/80)×10^6, where X is the number of cells in 1 ml and a is the number of cells counted in 5 large diagonal squares of the hemocytometer.
7 or 8 mice from each group were used to assess their survival in the experiment. The total lifespan observation time was 31 days from the moment of inoculation of tumor cells.
Statistical data processing. […]

[3] = 85Rbe-E2 750 μg/mouse IP total, alone, 14 mice per group
[4] = Day 15, 85Rbe-E2 750 μg/mouse IP total, alone
[5] = Day 22, 85Rbe-E2 750 μg/mouse IP total, alone
[6] = day 15, 85Rbe-E2 750 μg/mouse IP total, alone
[7] = day 17, 85Rbe-E2 750 μg/mouse IP total, alone
[8] = day 22, 85Rbe-E2 750 μg/mouse IP total, alone
[9] = day 24, 85Rbe-E2 750 μg/mouse IP total, alone
[10] = day 27, 85Rbe-E2 750 μg/mouse IP total, alone
[11] = day 29, 85Rbe-E2 750 μg/mouse IP total, alone
[12] = day 31, 85Rbe-E2 750 μg/mouse IP total, alone

Cc1ccc(S(=O)(=O)Nc2ccccc2NC(=O)c2ccccc2)cc1 [^85Rbe − E2, ^85Rb-enriched rubidium salt of N-benzoyl-N′-(4-toluenesulfonyl)-o-phenylenediamine]
% surviving MM-4 cells ([1]; E2+85Rbe 0.5 μg/ml alone): 32.3 ± 0.7%
% surviving MM-4 cells ([1]; E2+85Rbe 1 μg/ml alone): 8.3 ± 0.5%
% surviving MM-4 cells ([1]; E2+85Rbe 2 μg/ml alone): 6.4 ± 0.3%
Animals without tumor, % ([2]; 85Rbe-E2 750 μg/mouse IP total, alone): 0%
Number of animals in the group with tumor [2, 3]: 14
Number of animals in the group without tumor [2, 3]: 0
Last day with statistically significant inhibition of EAC growth vs control ([2]; 85Rbe-E2 alone): 15 days
Suppression of carcinoma growth vs control, average ([2]; 85Rbe-E2 alone, by the 15th day after inoculation): 18%
Number of dead cells/mouse, % [2, 4]: 4.3 ± 1.5%
Number of live cells/mouse, ×10^6 (M ± m) [2, 4]: 1917 ± 408 ×10^6
Volume of ascites [2, 4]: 6.5 ± 2.9 mL
Number of dead cells/mouse, % [2, 5]: 15.4 ± 3.6%
Number of live cells/mouse, ×10^6 (M ± m) [2, 5]: 2062 ± 438 ×10^6
Volume of ascites [2, 5]: 16.4 ± 4.8 mL
Survival, percent of mice ([2]; day 0, 85Rbe-E2 750 μg/mouse IP total, alone): 100%
Size of mouse abdomen, points ([2]; day 9, 85Rbe-E2 750 μg/mouse IP total, alone): 4.4 ± 0.2 points
Size of mouse abdomen, points ([2]; day 13, 85Rbe-E2 750 μg/mouse IP total, alone): 6 ± 0.3 points
Size of mouse abdomen, points [2, 6]: 6.5 ± 0.3 points
Survival, percent of mice [2, 6]: 100%
Size of mouse abdomen, points [2, 7]: 8 ± 0.6 points
Survival, percent of mice [2, 7]: 85.7%
Survival, percent of mice ([2]; day 19, 85Rbe-E2 750 μg/mouse IP total, alone): 85.7%
Size of mouse abdomen, points ([2]; day 20, 85Rbe-E2 750 μg/mouse IP total, alone): 9 ± 0.4 points
Size of mouse abdomen, points [2, 8]: 9.5 ± 0.4 points
Survival, percent of mice [2, 8]: 85.7%
Size of mouse abdomen, points [2, 9]: 10 points
Survival, percent of mice [2, 9]: 85.7%
Survival, percent of mice ([2]; day 25, 85Rbe-E2 750 μg/mouse IP total, alone): 71%
Survival, percent of mice ([2]; day 26, 85Rbe-E2 750 μg/mouse IP total, alone): 71%
Size of mouse abdomen, points [2, 10]: 10 points
Survival, percent of mice [2, 10]: 57%
Survival, percent of mice ([2]; day 28, 85Rbe-E2 750 μg/mouse IP total, alone): 43%
Size of mouse abdomen, points [2, 11]: 10 points
Survival, percent of mice [2, 11]: 29%
Size of mouse abdomen, points [2, 12]: 10 points
Survival, percent of mice [2, 12]: 14%
Effect on the survival rate of mice ([2]; series of IP injections of 85Rbe-E2 alone): did not have a significant effect

— patent US11286236B2, “Compound, agent and composition for the suppression of cancer growth” (Vector Vitale IP LLC, priority 2018, dated 2022)
